Measurements reported in PubChem BioAssay (NCI).
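Results reflect a 48-hour exposure of cells in 96-well plates to compound at five concentrations. TGI is the concentration that stops growth completely.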

Experiments:
Experiment in all cases: growth of human tumour cells (NCI), 48 h
[1] = tested on: HCC-2998 colon
[2] = tested on: SK-OV-3 ovarian
[3] = tested on: SF-539 CNS
[4] = tested on: HT29 colon
[5] = tested on: SW-620 colon
[6] = tested on: NCI/ADR-RES ovarian
[7] = tested on: BT-549 breast
[8] = tested on: DU-145 prostate
[9] = tested on: U251 CNS
[10] = tested on: HOP-18 NSCLC
[11] = tested on: HCT-15 colon
[12] = tested on: SK-MEL-5 melanoma
[13] = tested on: SF-295 CNS
[14] = tested on: TK-10 renal
[15] = tested on: T-47D breast
[16] = tested on: HOP-92 NSCLC
[17] = tested on: OVCAR-3 ovarian
[18] = tested on: MDA-MB-231 breast
[19] = tested on: UACC-257 melanoma
[20] = tested on: SK-MEL-2 melanoma
[21] = tested on: MDA-MB-435
[22] = tested on: M19-MEL melanoma
[23] = tested on: COLO 205 colon
[24] = tested on: CCRF-CEM leukemia
[25] = tested on: ACHN renal
[26] = tested on: LXFL 529 NSCLC
[27] = tested on: DLD-1 colon
[28] = tested on: MALME-3M melanoma
[29] = tested on: CAKI-1 renal
[30] = tested on: RPMI-8226 leukemia
[31] = tested on: RXF 393 renal
[32] = tested on: HS 578T breast
[33] = tested on: SNB-75 CNS
[34] = tested on: A498 renal
[35] = tested on: NCI-H522 lung
[36] = tested on: XF 498 CNS
[37] = tested on: OVCAR-4 ovarian
[38] = tested on: LOX IMVI melanoma
[39] = tested on: HOP-62 NSCLC
[40] = tested on: OVCAR-8 ovarian
[41] = tested on: EKVX NSCLC
[42] = tested on: KM12 colon
[43] = tested on: UO-31 renal
[44] = tested on: OVCAR-5 ovarian
[45] = tested on: KM20L2 colon
[46] = tested on: SNB-19 CNS
[47] = tested on: 786-0 renal
[48] = tested on: UACC-62 melanoma
[49] = tested on: DMS 114 small cell lung
[50] = tested on: NCI-H23 lung
[51] = tested on: MOLT-4 leukemia
[52] = tested on: K-562 leukemia
[53] = tested on: NCI-H226 lung
[54] = tested on: A549 NSCLC
[55] = tested on: HCT-116 colon
[56] = tested on: SF-268 CNS
[57] = tested on: M14 melanoma
[58] = tested on: SR leukemia
[59] = tested on: MCF7 breast
[60] = tested on: MDA-N
[61] = tested on: SN12C renal
[62] = tested on: DMS 273 small cell lung
[63] = tested on: SK-MEL-28 melanoma
[64] = tested on: IGROV1 ovarian
[65] = tested on: NCI-H460 lung
[66] = tested on: HL-60(TB) leukemia
[67] = tested on: PC-3 prostate

c1ccc2c(NCCCCCCNc3c4ccccc4nc4ccccc34)c3ccccc3nc2c1
TGI [1]: 1.76 µM | TGI [2]: 4.31 µM | TGI [3]: 0.835 µM | TGI [4]: 1.77 µM | TGI [5]: 2.18 µM | TGI [6]: 64.2 µM | TGI [7]: 3.32 µM | TGI [8]: 2.76 µM | TGI [9]: 2.59 µM | TGI [10]: 15.2 µM | TGI [11]: 16.7 µM | TGI [12]: 2.86 µM | TGI [13]: 2.18 µM | TGI [14]: 4.9 µM | TGI [15]: 12.5 µM | TGI [16]: 1.97 µM | TGI [17]: 2.21 µM | TGI [18]: 2.05 µM | TGI [19]: 8.28 µM | TGI [20]: 2.75 µM | TGI [21]: 2.27 µM | TGI [22]: 2.48 µM | TGI [23]: 1.58 µM | TGI [24]: 1.58 µM | TGI [25]: 1.72 µM | TGI [26]: 2.42 µM | TGI [27]: 3.29 µM | TGI [28]: 2.49 µM | TGI [29]: 7.87 µM | TGI [30]: 0.25 µM | TGI [31]: 1.56 µM | TGI [32]: 3.05 µM | TGI [33]: 2.29 µM | TGI [34]: 2.83 µM | TGI [35]: 1.66 µM | TGI [36]: 2.72 µM | TGI [37]: 2.18 µM | TGI [38]: 1.45 µM | TGI [39]: 2.21 µM | TGI [40]: 3.18 µM | TGI [41]: 5.69 µM | TGI [42]: 1.81 µM | TGI [43]: 23.5 µM | TGI [44]: 2.71 µM | TGI [45]: 3.05 µM | TGI [46]: 4.92 µM | TGI [47]: 2.08 µM | TGI [48]: 2.08 µM | TGI [49]: 2 µM | TGI [50]: 2.33 µM | TGI [51]: 0.212 µM | TGI [52]: > 100 µM | TGI [53]: 3.54 µM | TGI [54]: 2.89 µM | TGI [55]: 0.693 µM | TGI [56]: 2.71 µM | TGI [57]: 2.58 µM | TGI [58]: 0.991 µM | TGI [59]: 2.07 µM | TGI [60]: 1.62 µM | TGI [61]: 4.25 µM | TGI [62]: 1.35 µM

CC1(C)CCc2c(c(N=Nc3ccc(S(N)(=O)=O)cc3)c3ccccc3c2O)O1
TGI [1]: 15.9 µM | TGI [2]: 16.2 µM | TGI [3]: 22.2 µM | TGI [4]: 38.1 µM | TGI [5]: > 100 µM | TGI [63]: 72.9 µM | TGI [6]: 59.9 µM | TGI [7]: 29.1 µM | TGI [8]: 25 µM | TGI [9]: 20.9 µM | TGI [11]: 43.9 µM | TGI [12]: 8.1 µM | TGI [13]: 24 µM | TGI [14]: 38 µM | TGI [15]: 49.3 µM | TGI [16]: 37.5 µM | TGI [17]: 32.1 µM | TGI [18]: 8.77 µM | TGI [19]: 21.3 µM | TGI [20]: 83.8 µM | TGI [21]: 22.5 µM | TGI [23]: 44.9 µM | TGI [24]: 24.3 µM | TGI [25]: 56.7 µM | TGI [64]: 40.1 µM | TGI [28]: 15.8 µM | TGI [29]: 62.1 µM | TGI [30]: > 100 µM | TGI [31]: 24.6 µM | TGI [32]: > 100 µM | TGI [33]: 16.6 µM | TGI [34]: 7.28 µM | TGI [35]: 33.7 µM | TGI [37]: 26 µM | TGI [38]: 21.3 µM | TGI [39]: 20.7 µM | TGI [40]: 28.7 µM | TGI [41]: 57.1 µM | TGI [42]: 66.4 µM | TGI [65]: 24.3 µM | TGI [43]: 40.4 µM | TGI [66]: 49.9 µM | TGI [44]: 38.2 µM | TGI [46]: 39 µM | TGI [47]: 23.2 µM | TGI [48]: 34.3 µM | TGI [50]: 24.5 µM | TGI [51]: 82.7 µM | TGI [52]: > 100 µM | TGI [53]: 57.5 µM | TGI [54]: 30.2 µM | TGI [55]: 34.7 µM | TGI [56]: 84.9 µM | TGI [57]: 38.2 µM | TGI [58]: 58.3 µM | TGI [59]: 33.1 µM | TGI [60]: 9.72 µM | TGI [61]: 23.2 µM | TGI [67]: 36.1 µM

O=C(CCc1nnc2s/c(=C\c3ccc(Cl)c(Cl)c3)c(=O)n12)Nc1ccc(Cl)c(Cl)c1
TGI [1]: > 100 µM | TGI [2]: > 100 µM | TGI [3]: > 100 µM | TGI [4]: > 100 µM | TGI [5]: > 100 µM | TGI [63]: > 100 µM | TGI [9]: > 100 µM | TGI [10]: > 100 µM | TGI [11]: > 100 µM | TGI [12]: > 100 µM | TGI [13]: > 100 µM | TGI [14]: > 100 µM | TGI [16]: > 100 µM | TGI [17]: > 100 µM | TGI [19]: > 100 µM | TGI [22]: > 100 µM | TGI [23]: > 100 µM | TGI [24]: 60.2 µM | TGI [25]: > 100 µM | TGI [64]: > 100 µM | TGI [26]: > 100 µM | TGI [28]: > 100 µM | TGI [29]: > 100 µM | TGI [30]: 62.2 µM | TGI [31]: 74 µM | TGI [33]: > 100 µM | TGI [34]: > 100 µM | TGI [35]: 65.3 µM | TGI [36]: > 100 µM | TGI [37]: > 100 µM | TGI [38]: 39 µM | TGI [39]: > 100 µM | TGI [40]: 43.6 µM | TGI [41]: > 100 µM | TGI [42]: > 100 µM | TGI [65]: > 100 µM | TGI [43]: > 100 µM | TGI [66]: 64 µM | TGI [44]: > 100 µM | TGI [45]: > 100 µM | TGI [46]: > 100 µM | TGI [47]: > 100 µM | TGI [48]: > 100 µM | TGI [49]: > 100 µM | TGI [50]: > 100 µM | TGI [51]: 52.6 µM | TGI [52]: > 100 µM | TGI [53]: > 100 µM | TGI [54]: > 100 µM | TGI [55]: > 100 µM | TGI [56]: > 100 µM | TGI [57]: > 100 µM | TGI [58]: 74 µM | TGI [61]: > 100 µM
